According to paper PMC9652379, “Safety evaluations of a synthetic antimicrobial peptide administered intravenously in rats and dogs” (Scientific Reports, 2022):
Converted amounts (≈) assume the structure as drawn. Where two headings read alike, the source gives them in different places. Positions of bridges follow the written chain, without caps; N, C: chain ends. Non-standard residues stand in square brackets, D forms with d. Residues, ends and D or L forms follow the SMILES beside them. Chains are numbered I, II in the order given. βAla = NCCC(=O)O

Experiments:
mouse = conditions: cited from earlier work
K. pneumoniae = conditions: cited from earlier work
rats = test: Respiratory function in rats (whole body plethysmography); assay type: in vivo, rat
Procedure: The possible side-effects of SET-M33 on respiratory function were evaluated after administration of the peptide as a single intravenous bolus at doses of 5, 9 and 15 mg/kg with vehicle (eight animals/group). Respiratory rate, tidal volume and minute volume were assessed. As in the case of neurological toxicity and the 4-week toxicity study, again the dose levels were selected on the basis DRF (above). Baclofen, a muscle relaxer and antispasmodic used to treat muscle pain, spasms and stiffness in people with multiple sclerosis or spinal cord injury or disease, was used as positive control. It was administered as a single intravenous injection at a dose of 15 mg/kg.
Whole body, bias flow plethysmography equipment was used[51]. Respiratory parameters (respiratory rate, tidal volume and minute volume) were derived from the changes in pressure associated with the warming and humidification of the air breathed in by the animal. This was monitored by specific probes located in the plethysmograph chambers. Bias flow (room air) was set at approximately 2.5 L/min. On a day prior to the first day of dosing, all animals were habituated to the plethysmographs for approximately 2 h. The study was run over 4 days and 10 animals (two from each group) were examined each day. On the day of dosing, the animals were placed in the plethysmographs for pre-dose recording (session 1) of respiratory parameters for 60 min. Groups of 8 rats were then removed from the chambers and dosed by intravenous bolus injection with vehicle, SET-M33 or positive control. Immediately after dosing, the rats were placed in the whole body plethysmographs, where they could move about freely, to continuously record respiratory parameters for 4 h post-dose (undisturbed recording). Immediately after the last post-dose recording, the animals were killed humanely by a rising concentration of carbon dioxide. Death was confirmed by dislocation of the neck. Respiratory parameters were reported at the following time points: 0, 30, 60, 90, 120, 150, 180, 210 and 240 min. Time 0 coincided with the mean value of the last 20 min of data recorded in the 60-min pre-dose period. All other time points were the mean of 10-min recordings (an average of every 10 breaths) around each time point. Each post-dose time point was analysed separately by analysis of covariance. Factors in the model were group and day of data collection, with pre-dose values as covariate.

P. aeruginosa = conditions: cited from earlier work
[1] = Toxicokinetics in dogs, 4 weeks daily 1-h iv infusion; assay type: in vivo; conditions: dog; for Cmax / tmax / AUC0-24 / AUC(0-t): iv
Procedure: Plasma concentrations and the main toxicokinetic parameters of SET-M33 in plasma samples were determined in beagle dogs after intravenous administration of SET-M33 by daily 1-h-infusion at 0.5, 1.5 or 4.0 mg/kg/day or only vehicle for 4 weeks (5 animals/group/sex). Blood samples were taken on day 1 and day 28.
The time when the maximum plasma concentration occurred (Tmax) was at the end of the 1-h infusion in all animals, as expected for this route of administration. Plasma concentrations of SET-M33 at 24 h post-dose were below the limit of quantification (< 20.0 ng/ml) in all animals at all dose levels on day 1 and day 28 (not shown).
On days 1 and 28, blood samples were obtained for toxicokinetic determinations from all animals at the following times: Day 1 at the end of infusion and 5, 10, 15, 30, 60 and 180 min later; […] and 24 h ± 30 min post-dose; Day 28 at the end of infusion and 5, 10, 15, 30, 60 and 180 min later; […] and 24 h ± 30 min post-dose. Blood samples were collected into lithium heparin test tubes and kept in an ice bath until centrifuging (1600 g for 10 min at 2–8 °C). The plasma obtained from each sample was transferred to a fresh polypropylenes test tubes, immediately frozen in dry ice and stored at − 20 °C ± 5. Bioanalytical samples were analysed by a validated liquid chromatographic mass spectrometric assay. Pharmacokinetic parameters were calculated using the computer program Phoenix WinNonlin version 6.3 (Certara USA, Inc).

beagle dogs = test: Dose range finding in dogs: clinical signs, body weight, survival; assay type: in vivo, dog
Procedure: The purpose of this study was to conduct DRF for SET-M33 administered by short intravenous infusion (30 min) to beagle dogs at 4.0 and 8.0 mg/kg/day (7-day treatment period). Two animals served as control group (one male, one female), and four animals were assigned to treated groups (two males, two females). The doses were determined by a preliminary study not reported here.
Naïve beagle dogs were used for the toxicity studies. The animals were supplied by Marshall US. They were 9–10 months old at the start of treatment with a body-weight range of 9.1–10 kg for the DRF study. They were 6–7 months old at the start of treatment with a body-weight range of 6.6–8.6 kg for males and 5.1–6.5 kg for females for the 4-week toxicity study. The method of administration was an intravenous short infusion with an infusion pump, alternately either into the cephalic or saphenous veins using sterile disposable cannulas and syringes. The volume of the dose of SET-M33 and control in two studies was 2, 5 and 5 mL/Kg body weight, respectively.
Viability/mortality were recorded at least twice daily. […] Injection sites were examined daily during dosing. For clinical investigation, blood obtained via jugular venepuncture from anaesthetized dogs was used to analyse blood, coagulation and biochemical parameters.

[2] = female, beagle, in vivo, 4 mg/kg/day
[3] = male, beagle, in vivo, 0.5 mg/kg/day
[4] = male, beagle, in vivo, 4 mg/kg/day

Compound: CC[C@H](C)[C@H](NC(=O)[C@H](CCCCN)NC(=O)[C@@H](N)CCCCN)C(=O)N[C@@H](CCCNC(=N)N)C(=O)N[C@H](C(=O)N[C@@H](CCCNC(=N)N)C(=O)N[C@@H](CC(C)C)C(=O)N[C@@H](CO)C(=O)N[C@@H](C)C(=O)NCCCC[C@H](NC(=O)[C@H](C)NC(=O)[C@H](CO)NC(=O)[C@H](CC(C)C)NC(=O)[C@H](CCCNC(=N)N)NC(=O)[C@@H](NC(=O)[C@H](CCCNC(=N)N)NC(=O)[C@@H](NC(=O)[C@H](CCCCN)NC(=O)[C@@H](N)CCCCN)[C@@H](C)CC)C(C)C)C(=O)NCCCC[C@H](NC(=O)[C@H](CCCCNC(=O)[C@H](C)NC(=O)[C@H](CO)NC(=O)[C@H](CC(C)C)NC(=O)[C@H](CCCNC(=N)N)NC(=O)[C@@H](NC(=O)[C@H](CCCNC(=N)N)NC(=O)[C@@H](NC(=O)[C@H](CCCCN)NC(=O)[C@@H](N)CCCCN)[C@@H](C)CC)C(C)C)NC(=O)[C@H](C)NC(=O)[C@H](CO)NC(=O)[C@H](CC(C)C)NC(=O)[C@H](CCCNC(=N)N)NC(=O)[C@@H](NC(=O)[C@H](CCCNC(=N)N)NC(=O)[C@@H](NC(=O)[C@H](CCCCN)NC(=O)[C@@H](N)CCCCN)[C@@H](C)CC)C(C)C)C(=O)NCCC(=O)O)C(C)C [SET-M33] (I: H-KKIRVRLSAKK[βAla]-OH / II: H-KKIRVRLSAK / III: H-KKIRVRLSA / IV: H-KKIRVRLSA; amide I:10-IV:C, I:11-II:C, II:10-III:C (inferred); N-terminus and C-terminus assumed)
- efficacy dose (mouse): 5 mg/kg
- MIC50 (K. pneumoniae): 1.4 µM (≈ 6.56 µg/mL)
- MIC90 (K. pneumoniae): 2.8 µM (≈ 13.1 µg/mL)
- minute volume vs vehicle (rats; rats, 15 mg/kg single iv bolus, 30 min post-dose, subsided by 60 min): statistically significant increase
- effects on respiratory rate, tidal volume or minute volume (rats; rats, 5, 9 and 15 mg/kg single iv bolus, 4 h post-dose, n=8/group): did not produce any statistically significant adverse effects
- MIC50 (P. aeruginosa): 1.4 µM (≈ 6.56 µg/mL)
- MIC90 (P. aeruginosa): 1.4 µM (≈ 6.56 µg/mL)
- Cmax and AUC0-24 relative to values predicted for a linear relationship ([1]; in vivo, 4 mg/kg/day): approximately 2.1 times
- Cmax ([1]; in vivo, 0.5 mg/kg/day): 0.0828 ± 0.0191 µg/mL
- tmax ([1]; in vivo, 0.5 mg/kg/day): EOI
- tmax ([1]; in vivo, 1.5 mg/kg/day): EOI
- tmax ([1]; in vivo, 4 mg/kg/day): EOI
- AUC0-24 ([1]; female, beagle, in vivo, 0.5 mg/kg/day): 0.0456 ± 0.0104 µg·h/mL
- AUC(0-t) ([1]; female, beagle, in vivo, 0.5 mg/kg/day, AUC0-24): 0.0765 ± 0.0252 µg·h/mL
- Cmax ([1]; female, beagle, in vivo, 0.5 mg/kg/day, Cmax): 0.125 ± 0.035 µg/mL
- Cmax ([1]; female, beagle, in vivo, 1.5 mg/kg/day): 0.345 ± 0.087 µg/mL
- Cmax ([1]; female, beagle, in vivo, 1.5 mg/kg/day, Cmax): 0.645 ± 0.121 µg/mL
- AUC0-24 [1, 2]: 0.991 ± 0.161 µg·h/mL
- Cmax [1, 2]: 1.36 ± 0.22 µg/mL
- AUC(0-t) ([1]; female, beagle, in vivo, 4 mg/kg/day, AUC0-24): 1.55 ± 0.45 µg·h/mL
- Cmax ([1]; female, beagle, in vivo, 4 mg/kg/day, Cmax): 1.93 ± 0.35 µg/mL
- AUC0-24 [1, 3]: 0.0422 ± 0.0133 µg·h/mL
- Cmax [1, 3]: 0.0824 ± 0.0224 µg/mL
- AUC(0-t) ([1]; male, beagle, in vivo, 0.5 mg/kg/day, AUC0-24): 0.083 ± 0.0098 µg·h/mL
- Cmax ([1]; male, beagle, in vivo, 0.5 mg/kg/day, Cmax): 0.149 ± 0.016 µg/mL
- Cmax ([1]; male, beagle, in vivo, 1.5 mg/kg/day): 0.274 ± 0.11 µg/mL
- AUC(0-t) ([1]; male, beagle, in vivo, 1.5 mg/kg/day, AUC0-24): 0.157 ± 0.06 µg·h/mL
- Cmax ([1]; male, beagle, in vivo, 1.5 mg/kg/day, Cmax): 0.47 ± 0.218 µg/mL
- AUC0-24 [1, 4]: 0.569 ± 0.099 µg·h/mL
- Cmax [1, 4]: 0.816 ± 0.188 µg/mL
- AUC(0-t) ([1]; male, beagle, in vivo, 4 mg/kg/day, AUC0-24): 1.05 ± 0.15 µg·h/mL
- Cmax ([1]; male, beagle, in vivo, 4 mg/kg/day, Cmax): 1.49 ± 0.44 µg/mL
- AUC(0-t) ([1]; male, beagle, plasma, 1.5 mg/kg/day, male dogs, 1.5 mg/kg/day 1-h iv infusion, day 28, plasma, LC-MS, mean ± SD, n=5, read-out: AUC0-24): 0.416 ± 0.209 µg·h/mL
- survival (beagle dogs; dogs, 4.0 and 8.0 mg/kg/day 30-min iv infusion, 7 days): All animals survived the scheduled period
- loss of body weight with respect to day 1 (beagle dogs; one dog, 8 mg/kg/day 30-min iv infusion, end of 7-day treatment): 9.4%
